Where two headings read alike, the source gives them in different places. Each block holds one molecule with its values, some of them ahead of it.
Columns and labels:
[1] = system: phospho-SMAD2 (S465/S467); assay: Phospho-SMAD2 assay in RDSR cells; type: cell-based; details: Homo sapiens, 0.5 h, 100 ng/ml TGF-β1, 30 minutes
Excerpt: TGF-β is a pleiotropic cytokine involved in extremely conserved pathways relevant to cell growth, differentiation, and development. TGF-β signaling is triggered when the activated TGF-β homodimer binds to the TGF-β receptor 2 (TGFbR2), which in turn leads to the recruitment and phosphorylation of TGF-β receptor 1 (TGFbR1). Activated TGFbR1 phosphorylates the signal transduction molecules SMAD2 and SMAD3, which then bind to the common mediator SMAD4 and translocate to the nucleus where they alter gene transcription. In this assay, phospho-SMAD2 (S465/S467), a direct phosphorylation substrate of TGFbR1, was used as a readout of TGF-β pathway activity. Vactosertib (a TGFbR1 inhibitor available from MedChem Express HY-19928) was included as a positive control.
The RD SMAD reporter (RDSR) cell line was generated by stably integrating the SMAD reporter plasmid (Promega, pGL4.48[luc2P/SBE/Hygro]) into the human rhabdomyosarcoma cell line RD (ATCC, CCL-136).
RDSR cells were seeded in DMEM (ATCC30-2002)+10% FBS in 96-well plate and allowed to grow overnight at 5% CO2 and 37° C. The next day, cells were pre-treated with Compound 04, Compound 01 or vactosertib at various concentrations, or with vehicle (DMSO), for one hour. Cells were then stimulated with recombinant human TGF-β1 (R&D Systems 7754-BH-005) at a final concentration of 100 ng/ml, in the presence of Compound 04, Compound 01, vactosertib, or DMSO for thirty minutes. A no-TGF-β1 stimulation condition was included for baseline phospho-SMAD2 level measurement.
The phospho-SMAD2 levels were determined using the Bio-Plex Pro™ Phospho-Smad2 (Ser465/Ser467) bead/antibody set (BioRad 171V50019M). Phospho-SMAD2 levels were normalized to ß-tubulin (MILLIPLEX MAP ß-Tubulin Total Magnetic Bead MAPmate™, Millipore 46-713MAG) or GAPDH (MILLIPLEX MAP GAPDH Total Magnetic Bead MAPmate™, Millipore 46-667MAG) levels from each sample. All samples were analyzed in a multiplex fashion with the Bio-Plex Pro Cell Signaling Reagent Kit (BioRad 171304006M). […] Bead suspension was analyzed using the Luminex system (MAGPIX). […]

p-STAT3 (Tyr 705) = assay: A549 xenograft assay, p-STAT3; type: in vivo, mice; details: tumors 4 h after dosing
Excerpt: To test compounds for inhibition of in vivo on-target activity (ALK5/TGF-bR1 inhibition) as well as potential Janus Kinase (JAK) signaling off-target activity, the A549 murine xenograft model was utilized. An ALK5 inhibitor (e.g., vactosertib) is expected to reduce the amount of the TGF-beta signaling molecule phospho-SMAD-2 (pSMAD2) in the A549 xenograft cells. The TGF-beta-mediated phosphorylation of SMAD2 in A549 cells takes place at amino acid residue four hundred and sixty-five and four hundred and sixty-seven (both are serine residues). A JAK inhibitor (e.g., ruxolitinib) is expected to reduce the phosphorylation of signal transducer and activator of transcription (STAT) proteins such as STAT3 at amino acid residue 705 (tyrosine).
At eight weeks of age, female athymic nude mice (purchased from Charles River) were injected with approximately 3.5 million A549 cells (ATCC, CCL-185). Specifically, cells were harvested and resuspended in plain RPMI media (no phenol red added) and Matrigel (Corning 356237) at a one to one ratio, and two hundred-microliters were injected into the right hind flank of each mouse. Tumors were measured every three days by caliper and as tumors reached an average of seventy-eighty millimeters cubed, mice were randomized in groups of three. All compounds were resuspended in 1-methyl-2-pyrrolidinone (Sigma 494496) (10%) plus 20% Solutol (Sigma 42966) in water (90%). Vactosertib and ruxolitinib were included as controls as ALK5 signaling inhibitor and JAK signaling inhibitor, respectively. Both controls were given at seventy-five milligrams per kilogram to three mice. The drug suspensions were sonicated for fifteen minutes to generate a fine particle suspension before being given to the mice. Mice were dosed (per oral gavage) with drug at one hundred, seventy-five, fifty, or ten milligrams per kilogram, with three mice per group. A vehicle control group with three mice was used to establish the baseline level of phospho-SMAD-2 in the tumor xenograft.
Four hours after drug administration, tumors were harvested, snap frozen and stored at negative eighty degrees Celsius until further processing. The phospho-SMAD-2 levels were determined using the Bio-Plex Pro™ Phospho-Smad2 (Ser465/Ser467) Set (BioRad 171V50019M). The phospho STAT3 levels were determined using the bead/antibody set from the MILLIPLEXMAP STAT Cell Signaling Magnetic Bead 5-Plex Kit (Millipore 48-610MAG). Both phospho SMAD-2 levels and phospho STAT3 levels were normalized to ß-Tubulin (MILLIPLEX MAP ß-Tubulin Total Magnetic Bead MAPmate™, Millipore 46-713MAG) or GAPDH (MILLIPLEX MAP GAPDH Total Magnetic Bead MAPmate™, Millipore 46-667MAG) levels from each sample. All analytes were analyzed in a multiplex fashion with the Bio-Plex Pro Cell Signaling Reagent Kit (BioRad 171304006M). Briefly, frozen tumor (fifteen to thirty milligrams) was lysed in 100 μl lysis buffer, processed in bead mill tube, and centrifuged. The resulting lysate was used at 1:50 dilution for the assay according to the manufacturer's instructions. Bead suspension was analyzed using the Luminex system (MAGPIX).

[2] = system: TGF-β1-mediated αSMA expression; assay: Fibroblast to myofibroblast transformation (FMT) assay; details: for IC50: Homo sapiens, Fibroblast; for Potentially toxic concentration: lowest concentration with >25% loss of nuclei; for inhibition of TGF-β1-mediated αSMA expression: all three IPF donors; for loss of nuclei: donor IPF03, highest test concentration (10 μM); for modulation of the number of nuclei: donors IPF06 and IPF08
Method: To test the ability of selected compounds to inhibit the TGF-β1-dependent transition of fibroblasts to myofibroblasts in a relevant disease model of IPF, an FMT assay was performed using lung fibroblasts from IPF patients. In this assay, the transition of fibroblasts to myofibroblasts is determined by the expression of the biomarker alpha smooth muscle actin (α-SMA).
Primary human bronchial fibroblasts derived from IPF patients were seeded on day zero and the media was refreshed on day two. On day five, selected compounds or controls were added at an eight-point concentration response curve starting at 10 μM (semi-log dilutions). Each drug concentration condition was evaluated in biological duplicates. […] Seventy-two hours following TGF-beta addition, the cells were fixed with formaldehyde. High content imaging evaluating cell number using the nuclear stain DAPI as well as the expression of a-SMA was performed. The following controls were run alongside the selected compounds: vactosertib and the approved IPF drug nintedanib (at an eight-point, semi-log curve with 10 μM starting concentration). As a negative control 0.1% DMSO was also used, matching the DMSO concentration in treated wells. The following calculations were used to determine cell number as well as percent inhibition (PIN) of alpha SMA expression:
• Segmentation and quantification of αSMA immunoreactivity by an HCA algorithm, with density×area (D×A) output • Data normalization of raw αSMA (D×A) to percentage inhibition (PIN) values, on a plate-to-plate basis
• DAPI fluorescence applied for HCA-based quantification of the number of imaged cells, on a plate-to-plate basis
[formula] • μn is the average numbers of nuclei of the vehicle control (TGF-β1+0.1% DMSO) • Xi is the compound number of nuclei

[3] = read-out: Average IC50 (nM), average of donors IPF03, IPF06, IPF08
[4] = read-out: IC50 αSMA, donor IPF03
[5] = read-out: IC50 αSMA, donor IPF06
[6] = read-out: IC50 αSMA, donor IPF08
[7] = read-out: pIC50 αSMA, donor IPF03 (converted)
[8] = read-out: pIC50 αSMA, donor IPF06 (converted)
[9] = read-out: pIC50 αSMA, donor IPF08 (converted)

IC50 [1]: < 200 nM
SMILES: Cc1cccc(-c2[nH]c(CNc3ccccc3F)nc2-c2ccc3ncnn3c2)n1 [Vactosertib, vactosertib, reference compound]
Average % p-STAT3 (Tyr 705) of vehicle (p-STAT3 (Tyr 705); 75 mg/kg per oral gavage): 63% | IC50 [2, 3]: 38.3 nM | IC50 [2, 4]: 50 nM | IC50 [2, 5]: 40 nM | IC50 [2, 6]: 25 nM | IC50 [2, 7]: 50.1 nM | IC50 [2, 8]: 39.8 nM | IC50 [2, 9]: 25.1 nM | Max PIN (%) ([2]; donor IPF03): 105% | Max PIN (%) ([2]; donor IPF06): 104% | Max PIN (%) ([2]; donor IPF08): 102%

SMILES: Cc1cccc2c(Nc3ccnc(Nc4ccc(N5CCOCC5)cc4)c3)cnnc12 [Compound 05, N4-(8-methylcinnolin-4-yl)-N2-[4-(morpholin-4-yl)phenyl]pyridine-2,4-diamine]
Average % p-STAT3 (Tyr 705) of vehicle (p-STAT3 (Tyr 705); 10 mg/kg per oral gavage): 107% | Average % p-STAT3 (Tyr 705) of vehicle (p-STAT3 (Tyr 705); 50 mg/kg per oral gavage): 85% | Average % p-STAT3 (Tyr 705) of vehicle (p-STAT3 (Tyr 705); 75 mg/kg per oral gavage): 77% | Average % p-STAT3 (Tyr 705) of vehicle (p-STAT3 (Tyr 705); 100 mg/kg per oral gavage): 93% | IC50 [2, 3]: 50 nM | IC50 [2, 4]: 60 nM | IC50 [2, 5]: 50 nM | IC50 [2, 6]: 40 nM | IC50 [2, 7]: 63.1 nM | IC50 [2, 8]: 50.1 nM | IC50 [2, 9]: 39.8 nM | Max PIN (%) ([2]; donor IPF03): 106% | Potentially toxic concentration ([2]; donor IPF03): 5.0 | Max PIN (%) ([2]; donor IPF06): 106% | Max PIN (%) ([2]; donor IPF08): 101%

SMILES: Clc1cccc2c(Nc3ccnc(Nc4cccc(N5CCOCC5)c4)c3)cnnc12 [Compound 04, N4-(8-chlorocinnolin-4-yl)-N2-[3-(morpholin-4-yl)phenyl]pyridine-2,4-diamine]
IC50 [1]: < 200 nM | Average % p-STAT3 (Tyr 705) of vehicle (p-STAT3 (Tyr 705); 10 mg/kg per oral gavage): 88% | Average % p-STAT3 (Tyr 705) of vehicle (p-STAT3 (Tyr 705); 50 mg/kg per oral gavage): 73% | Average % p-STAT3 (Tyr 705) of vehicle (p-STAT3 (Tyr 705); 75 mg/kg per oral gavage): 59% | Average % p-STAT3 (Tyr 705) of vehicle (p-STAT3 (Tyr 705); 100 mg/kg per oral gavage): 97% | IC50 [2, 3]: 40 nM | IC50 [2, 4]: 40 nM | IC50 [2, 5]: 50 nM | IC50 [2, 6]: 30 nM | IC50 [2, 7]: 39.8 nM | IC50 [2, 8]: 50.1 nM | IC50 [2, 9]: 31.6 nM | inhibition of TGF-β1-mediated αSMA expression [2]: full concentration-dependent inhibition | Max PIN (%) ([2]; donor IPF03): 107% | loss of nuclei [2]: < 25% | Max PIN (%) ([2]; donor IPF06): 106% | Max PIN (%) ([2]; donor IPF08): 100% | modulation of the number of nuclei [2]: No modulation of the number of nuclei was observed

SMILES: Cc1nn(CC(F)(F)F)cc1Nc1cc(Nc2cnnc3c(C)cccc23)ccn1 [Compound 01, N2-[3-methyl-1-(2,2,2-trifluoroethyl)-1H-pyrazol-4-yl]-N4-(8-methylcinnolin-4-yl)pyridine-2,4-diamine]
IC50 [1]: < 200 nM | Average % p-STAT3 (Tyr 705) of vehicle (p-STAT3 (Tyr 705); 10 mg/kg per oral gavage): 92% | Average % p-STAT3 (Tyr 705) of vehicle (p-STAT3 (Tyr 705); 50 mg/kg per oral gavage): 70% | Average % p-STAT3 (Tyr 705) of vehicle (p-STAT3 (Tyr 705); 75 mg/kg per oral gavage): 66% | Average % p-STAT3 (Tyr 705) of vehicle (p-STAT3 (Tyr 705); 100 mg/kg per oral gavage): 76% | IC50 [2, 3]: 83.3 nM | IC50 [2, 4]: 100 nM | IC50 [2, 5]: 100 nM | IC50 [2, 6]: 50 nM | IC50 [2, 7]: 100 nM | IC50 [2, 8]: 100 nM | IC50 [2, 9]: 50.1 nM | inhibition of TGF-β1-mediated αSMA expression [2]: full concentration-dependent inhibition | Max PIN (%) ([2]; donor IPF03): 106% | loss of nuclei [2]: > 25% | Potentially toxic concentration ([2]; donor IPF03): 5.0 | Max PIN (%) ([2]; donor IPF06): 107% | Max PIN (%) ([2]; donor IPF08): 101% | modulation of the number of nuclei [2]: No modulation of the number of nuclei was observed

— US20240197729A1, “ALK-5 Inhibitors and Uses Thereof” (Sumitomo Pharma Oncology, Inc., priority 2021, published 2024)
